# Measured values taken from PMC6033010, “A Targeted LC‐MS Strategy for Low‐Abundant HLA Class‐I‐Presented Peptide Detection Identifies Novel Human Papillomavirus T‐Cell Epitopes” (Proteomics, 2018).
# Where a SMILES comes first, the peptide text is derived from it.
# Target: T1, HLA‐A2 (Homo sapiens, UniProt P04439, D140Y/D185E/D98H/E176V/E277Q/G131W/G231S/I119V/I121R/I166T/I218V/L300P/L318F/N151K/N90K/P208A/P217A/Q86G/Q94H/R138H/R169H/T345S)
# T1 construct: host or cells: BSM cells (HLA-A2+, HPV16-negative suspension cell line)
# Test: In vitro competition-based cellular binding assay
# Details: acid-stripped BSM cells, β2M, 150 nM fluorescein-labeled reference peptide FLPSDC(Fl)FPSV, test peptide 0.78–100 μM, overnight 4 °C, flow cytometry; mean of at least three experimental replicates; read-out: Experimental binding affinity [IC50(μM)]
# Procedure: In Vitro Competition Based Binding Assays: In vitro competition‐based binding assays were performed as described in ref. 30. In brief, BSM cells were treated with citric acid buffer to strip off naturally presented peptides. Cells were incubated overnight at 4 °C with β2M, a constant concentration (150 nM) of fluorescein‐labeled HLA‐A2‐binding reference peptide (FLPSDC(Fl)FPSV), and six different concentrations (0.78 –100 μM) of the respective investigated non‐labeled peptide, competing for HLA‐binding. Fluorescence was measured by flow cytometry and data processed with FlowJo 10 (TreeStar, Ashland, OR, USA). A logistic four‐parametric non‐linear regression calculation using SigmaPlot 13 (Systat‐Software, San José, CA, USA) was conducted to calculate binding affinity (IC50). […] The assay was performed with at least three biological replicates for binders and two for non‐binders.
row,SMILES,IC50 [µM]
1,CSCC[C@H](NC(=O)[C@@H](N)Cc1ccc(O)cc1)C(=O)N[C@@H](CC(C)C)C(=O)N[C@@H](CC(=O)O)C(=O)N[C@@H](CC(C)C)C(=O)N[C@@H](CCC(N)=O)C(=O)N1CCC[C@H]1C(=O)N[C@@H](CCC(=O)O)C(=O)O [E7_11–18] (H-YMLDLQPE-OH),8.07
2,CSCC[C@H](NC(=O)[C@H](CC(C)C)NC(=O)[C@H](CC(C)C)NC(=O)[C@H](CC(=O)O)NC(=O)[C@H](CCC(=O)O)NC(=O)[C@H](CC(C)C)NC(=O)[C@@H](NC(=O)[C@@H](N)CCCNC(=N)N)[C@@H](C)O)C(=O)NCC(=O)N[C@H](C(=O)O)[C@@H](C)O [E7_77–86],66.9
3,CSCC[C@H](N)C(=O)N[C@@H](CC(C)C)C(=O)N[C@@H](CC(=O)O)C(=O)N[C@@H](CC(C)C)C(=O)N[C@@H](CCC(N)=O)C(=O)N1CCC[C@H]1C(=O)N[C@@H](CCC(=O)O)C(=O)N[C@H](C(=O)O)[C@@H](C)O [E7_12–19] (H-MLDLQPET-OH),53.7
4,CC[C@H](C)[C@H](N)C(=O)N[C@@H](CCCNC(=N)N)C(=O)N[C@H](C(=O)N[C@@H](CC(C)C)C(=O)N[C@@H](CCC(=O)O)C(=O)N[C@@H](CC(=O)O)C(=O)N[C@@H](CC(C)C)C(=O)N[C@@H](CC(C)C)C(=O)N[C@@H](CCSC)C(=O)NCC(=O)N[C@H](C(=O)O)[C@@H](C)O)[C@@H](C)O [E7_76–86] (H-IRTLEDLLMGT-OH),31.9
5,CSCC[C@H](NC(=O)[C@H](CC(C)C)NC(=O)[C@H](CC(C)C)NC(=O)[C@H](CC(=O)O)NC(=O)[C@H](CCC(=O)O)NC(=O)[C@H](CC(C)C)NC(=O)[C@@H](NC(=O)[C@@H](N)CCCNC(=N)N)[C@@H](C)O)C(=O)NCC(=O)N[C@H](C(=O)N[C@@H](CC(C)C)C(=O)O)[C@@H](C)O [E7_77–87] (H-RTLEDLLMGTL-OH),2.69
6,CC[C@H](C)[C@H](NC(=O)CNC(=O)[C@H](CC(C)C)NC(=O)[C@@H](NC(=O)CNC(=O)[C@H](CCSC)NC(=O)[C@H](CC(C)C)NC(=O)[C@H](CC(C)C)NC(=O)[C@@H](N)CC(=O)O)[C@@H](C)O)C(=O)N[C@H](C(=O)O)C(C)C [E7_81–90] (H-DLLMGTLGIV-OH),81
7,CSCC[C@H](NC(=O)[C@H](Cc1ccc(O)cc1)NC(=O)[C@H](CCC(=O)O)NC(=O)[C@H](Cc1c[nH]cn1)NC(=O)[C@H](CC(C)C)NC(=O)[C@@H](N)[C@@H](C)O)C(=O)N[C@@H](CC(C)C)C(=O)N[C@@H](CC(=O)O)C(=O)N[C@@H](CC(C)C)C(=O)N[C@@H](CCC(N)=O)C(=O)N1CCC[C@H]1C(=O)O [E7_7–17] (H-TLHEYMLDLQP-OH),19.3
8,CC[C@H](C)[C@H](NC(=O)CNC(=O)[C@H](CC(C)C)NC(=O)[C@@H](NC(=O)CNC(=O)[C@H](CCSC)NC(=O)[C@H](CC(C)C)NC(=O)[C@H](CC(C)C)NC(=O)[C@H](CC(=O)O)NC(=O)[C@@H](N)CCC(=O)O)[C@@H](C)O)C(=O)N[C@H](C(=O)O)C(C)C [E7_80–90] (H-EDLLMGTLGIV-OH),14.2
9,CSCC[C@H](NC(=O)[C@H](CC(C)C)NC(=O)[C@H](CC(C)C)NC(=O)[C@H](CC(=O)O)NC(=O)[C@H](CCC(=O)O)NC(=O)[C@H](CC(C)C)NC(=O)[C@@H](N)[C@@H](C)O)C(=O)NCC(=O)N[C@H](C(=O)O)[C@@H](C)O [E7_78–86] (H-TLEDLLMGT-OH),64.6
10,CSCC[C@H](NC(=O)[C@H](Cc1ccc(O)cc1)NC(=O)[C@@H](N)CCC(=O)O)C(=O)N[C@@H](CC(C)C)C(=O)N[C@@H](CC(=O)O)C(=O)N[C@@H](CC(C)C)C(=O)N[C@@H](CCC(N)=O)C(=O)N1CCC[C@H]1C(=O)N[C@@H](CCC(=O)O)C(=O)N[C@H](C(=O)O)[C@@H](C)O [E7_10–19],45.3
11,CC[C@H](C)[C@H](NC(=O)[C@H](CC(=O)O)NC(=O)[C@H](Cc1c[nH]cn1)NC(=O)[C@@H](NC(=O)[C@@H](NC(=O)[C@@H](NC(=O)[C@H](CCC(N)=O)NC(=O)[C@H](CC(C)C)NC(=O)[C@@H](N)CCC(=O)O)[C@@H](C)O)[C@@H](C)O)[C@@H](C)CC)C(=O)O [E6_25–33] (H-ELQTTIHDI-OH),36.9
12,CSCC[C@H](NC(=O)[C@@H](N)Cc1ccc(O)cc1)C(=O)N[C@@H](CC(C)C)C(=O)N[C@@H](CC(=O)O)C(=O)N[C@@H](CC(C)C)C(=O)N[C@@H](CCC(N)=O)C(=O)N1CCC[C@H]1C(=O)N[C@@H](CCC(=O)O)C(=O)N[C@H](C(=O)N[C@H](C(=O)N[C@@H](CC(=O)O)C(=O)O)[C@@H](C)O)[C@@H](C)O [E7_11–21],2.37
